pKd: −log10 of the molar value.

For assay [1], the system named is FADD−/− Jurkat cells. The assay is described as follows: Necroptosis inhibition assay, TNF-α-induced necroptosis (CellTiter-Glo 2.0). It counts as cell-based, human. The conditions noted are these: TNF-α 15 ng/mL; for Necroptosis inhibition assay (Rescue %) 1 μM: compound 1 μM; for Necroptosis inhibition assay (Rescue %) 10 μM: compound 10 μM. The method in brief:
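Cmpd 0.1/1/10 μM final, 30 min RT preincubation; TNF-α 15 ng/mL final; 20–24 h, 37° C, 5% CO2. Readout: ATP luminescence (reagent 1:3 in PBS), 0.5 s/well. Cytotoxicity and % necroptosis inhibition calculated from signal.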

The target in assay [2] is T1, MLKL (Homo sapiens, UniProt Q8NB16).
T1 sequence (Q8NB16 1-471): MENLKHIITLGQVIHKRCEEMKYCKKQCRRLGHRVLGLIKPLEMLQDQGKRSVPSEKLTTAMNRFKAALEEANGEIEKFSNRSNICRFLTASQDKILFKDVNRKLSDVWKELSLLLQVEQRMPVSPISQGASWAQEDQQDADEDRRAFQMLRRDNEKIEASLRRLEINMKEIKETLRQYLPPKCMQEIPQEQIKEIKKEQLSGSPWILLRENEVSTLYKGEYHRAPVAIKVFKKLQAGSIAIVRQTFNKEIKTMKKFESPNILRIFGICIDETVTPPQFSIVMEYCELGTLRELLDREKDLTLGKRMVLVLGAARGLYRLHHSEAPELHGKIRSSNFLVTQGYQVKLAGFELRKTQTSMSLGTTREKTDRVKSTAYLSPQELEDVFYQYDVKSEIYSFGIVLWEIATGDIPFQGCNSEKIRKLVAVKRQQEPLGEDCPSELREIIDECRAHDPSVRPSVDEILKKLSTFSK
The assay is described as follows: MLKL degradation assay in HepG2 cell line (western blot). It counts as cell-based. On the set-up: endogenous in cells; host or cells: HepG2 or HaCaT. The conditions noted are these: cell line not given; for Degradation assay (Degradation %) 1 μM: compound 1 μM; for Degradation assay (Degradation %) 10 μM: compound 10 μM. The procedure, abridged:
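HepG2, cpd final 1 or 10 μM, 20-24 h, 37 °C/5% CO2; RIPA lysis, BCA-normalized, 10-15 μg/lane SDS-PAGE, western blot, ECL read-out.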

The target of assay [3] is T1, MLKL. Description: Measurement of binding affinity with MLKL receptor (competitive binding assay, Kd). The arrangement: made in house; host or cells: HEK 293 cell line (T7 phage in E. coli BL21-derived host is also described). The method in brief: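 HEK 293-expressed, DNA-tagged MLKL; ligand beads blocked with biotin and SeaBlock/1% BSA/0.05% Tween 20/1 mM DTT buffer. Cpd from 111× DMSO stock, 0.9% DMSO final. Eluted kinase by qPCR → Kd.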

Regarding `Nc1ncc(-c2cnn(C3CCN(C(=O)CCC4CCN(C(=O)C5CCN(c6ccc7nnn(C8CCC(=O)NC8=O)c(=O)c7c6)CC5)CC4)CC3)c2)nc1C(=O)O[C@@H](C(=O)Nc1ccc(F)cc1)c1ccccc1` (stereo partly drawn) [TDH-436, (R)-2-((4-fluorophenyl)amino)-2-oxo-1-phenylethyl 3-amino-6-(1-(1-(3-(1-(1-(3-(2,6-dioxopiperidin-3-yl)-4-oxo-3,4-dihydrobenzo[d][1,2,3]triazin-6-yl)piperidine-4-carbonyl)piperidin-4-yl)propanoyl)piperidin-4-yl)-1H-pyrazol-4-yl)pyrazine-2-carboxylate], in assay [1] (FADD−/− Jurkat cells), the “Necroptosis inhibition assay (Rescue %) 1 μM” value is given as 41.81% and the “Necroptosis inhibition assay (Rescue %) 10 μM” value is recorded as 21.38%. In addition, in assay [2], the “Degradation assay (Degradation %) 1 μM” value came to 85.98% and the “Degradation assay (Degradation %) 10 μM” value worked out at 71.25%. In addition, in assay [3], the pKd is 8.51.

For the molecule `Nc1ncc(-c2cnn(C3CCN(C(=O)C4CCN(C(=O)COc5ccc6c(c5)C(=O)N(C5CCC(=O)NC5=O)C6=O)CC4)CC3)c2)nc1C(=O)OC(C(=O)Nc1ccc(F)cc1)c1ccccc1` (centres unmarked) [TDH-278, 2-((4-fluorophenyl)amino)-2-oxo-1-phenylethyl 3-amino-6-(1-(1-(1-(2-((2-(2,6-dioxopiperidin-3-yl)-1,3-dioxoisoindolin-5-yl)oxy)acetyl)piperidine-4-carbonyl)piperidin-4-yl)-1H-pyrazol-4-yl)pyrazine-2-carboxylate], in assay [1], the “Necroptosis inhibition assay (Rescue %) 1 μM” value is reported as 63.64% and the “Necroptosis inhibition assay (Rescue %) 10 μM” value amounted to 39.23%. Besides, in assay [2], the “Degradation assay (Degradation %) 1 μM” value is recorded as 64.63% and the “Degradation assay (Degradation %) 10 μM” value is 75.28%. In assay [3], this molecule had a pKd of 8.85.

As for `Nc1ncc(-c2cnn(C3CCN(CC4CCN(C(=O)CNc5cccc6c5C(=O)N(C5CCC(=O)NC5=O)C6=O)CC4)CC3)c2)nc1C(=O)O[C@@H](C(=O)Nc1ccc(F)cc1)c1ccccc1` (stereo partly drawn) [TDH-136, (R)-2-((4-fluorophenyl)amino)-2-oxo-1-phenylethyl 3-amino-6-(1-(1-((1-((2-(2,6-dioxopiperidin-3-yl)-1,3-dioxoisoindolin-4-yl)glycyl)piperidin-4-yl)methyl)piperidin-4-yl)-1H-pyrazol-4-yl)pyrazine-2-carboxylate], in assay [1], the “Necroptosis inhibition assay (Rescue %) 1 μM” value was determined as 48.59% and the “Necroptosis inhibition assay (Rescue %) 10 μM” value was 40.66%. Moreover, in assay [2], the “Degradation assay (Degradation %) 1 μM” value was found to be 50.37% and the “Degradation assay (Degradation %) 10 μM” value came out at 48.83%. Also, in assay [3], the pKd was 8.34.

Take `Nc1ncc(-c2cnn(C3CCN(C(=O)COC4CCN(C(=O)COc5cccc6c5C(=O)N(C5CCC(=O)NC5=O)C6=O)CC4)CC3)c2)nc1C(=O)O[C@@H](C(=O)Nc1ccc(F)cc1)c1ccccc1` (stereo partly drawn) [TDH-393, (R)-2-((4-fluorophenyl)amino)-2-oxo-1-phenylethyl 3-amino-6-(1-(1-(2-((1-(2-((2-(2,6-dioxopiperidin-3-yl)-1,3-dioxoisoindolin-4-yl)oxy)acetyl)piperidin-4-yl)oxy)acetyl)piperidin-4-yl)-1H-pyrazol-4-yl)pyrazine-2-carboxylate]: in assay [1], the “Necroptosis inhibition assay (Rescue %) 1 μM” value is given as 27.21% and the “Necroptosis inhibition assay (Rescue %) 10 μM” value is recorded as 38.01%. Moreover, in assay [2], the “Degradation assay (Degradation %) 1 μM” value worked out at 73.39% and the “Degradation assay (Degradation %) 10 μM” value amounted to 82.10%. This molecule had a pKd in assay [3] of 9.00.

On to `Nc1ncc(-c2cnn(C3CCN(CCCN4CCN(C(=O)c5ccc(C(=O)NC6CCC(=O)NC6=O)cc5)CC4)CC3)c2)nc1C(=O)O[C@@H](C(=O)Nc1ccc(F)cc1)c1ccccc1` (stereo partly drawn) [TDH-535, (R)-2-((4-fluorophenyl)amino)-2-oxo-1-phenylethyl 3-amino-6-(1-(1-(3-(4-(4-((2,6-dioxopiperidin-3-yl)carbamoyl)benzoyl)piperazin-1-yl)propyl)piperidin-4-yl)-1H-pyrazol-4-yl)pyrazine-2-carboxylate], for which, in assay [1] (FADD−/− Jurkat cells), the “Necroptosis inhibition assay (Rescue %) 1 μM” value was 20.08% and the “Necroptosis inhibition assay (Rescue %) 10 μM” value is recorded as 23.78%. Also, in assay [2], the “Degradation assay (Degradation %) 1 μM” value worked out at 57.69% and the “Degradation assay (Degradation %) 10 μM” value was determined as 44.41%. In assay [3], the pKd was 9.02.

For the molecule `Nc1ncc(-c2cnn(C3CCN(CCC4CCN(CC5CCN(c6cc7c(cc6F)C(=O)N(C6CCC(=O)NC6=O)C7=O)CC5)CC4)CC3)c2)nc1C(=O)O[C@@H](C(=O)Nc1ccc(F)cc1)c1ccccc1` (stereo partly drawn) [TDH-514, (R)-2-((4-fluorophenyl)amino)-2-oxo-1-phenylethyl 3-amino-6-(1-(1-(2-(1-((1-(2-(2,6-dioxopiperidin-3-yl)-6-fluoro-1,3-dioxoisoindolin-5-yl)piperidin-4-yl)methyl)piperidin-4-yl)ethyl)piperidin-4-yl)-1H-pyrazol-4-yl)pyrazine-2-carboxylate], in assay [1] (FADD−/− Jurkat cells), the “Necroptosis inhibition assay (Rescue %) 1 μM” value is 24.14% and the “Necroptosis inhibition assay (Rescue %) 10 μM” value was −67.06%. In addition, in assay [2], the “Degradation assay (Degradation %) 1 μM” value came out at 55.53% and the “Degradation assay (Degradation %) 10 μM” value is listed as 84.44%. In addition, the pKd in assay [3] was 9.05.

In the case of `Nc1ncc(-c2cnn(C3CCN(C(=O)C4CCN(C(=O)C5CCN(c6ccc7c(c6)C(=O)N(C6CCC(=O)NC6=O)C7=O)CC5)CC4)CC3)c2)nc1C(=O)OC(C(=O)Nc1ccc(F)cc1)c1ccccc1` (centres unmarked) [TDH-274, 2-((4-fluorophenyl)amino)-2-oxo-1-phenylethyl 3-amino-6-(1-(1-(1-(1-(2-(2,6-dioxopiperidin-3-yl)-1,3-dioxoisoindolin-5-yl)piperidine-4-carbonyl)piperidine-4-carbonyl)piperidin-4-yl)-1H-pyrazol-4-yl)pyrazine-2-carboxylate], in assay [1], the “Necroptosis inhibition assay (Rescue %) 1 μM” value is reported as 77.01% and the “Necroptosis inhibition assay (Rescue %) 10 μM” value is listed as 57.62%. Moreover, in assay [2], the “Degradation assay (Degradation %) 1 μM” value is given as 56.81% and the “Degradation assay (Degradation %) 10 μM” value came out at 38.77%. Also, the pKd in assay [3] was 8.28.

On to `Nc1ncc(-c2cnn(C3CCN(CC4CCN(C(=O)CC5CCN(c6cccc7c6C(=O)N(C6CCC(=O)NC6=O)C7=O)CC5)CC4)CC3)c2)nc1C(=O)O[C@@H](C(=O)Nc1ccc(F)cc1)c1ccccc1` (stereo partly drawn) [TDH-204, (R)-2-((4-fluorophenyl)amino)-2-oxo-1-phenylethyl 3-amino-6-(1-(1-((1-(2-(1-(2-(2,6-dioxopiperidin-3-yl)-1,3-dioxoisoindolin-4-yl)piperidin-4-yl)acetyl)piperidin-4-yl)methyl)piperidin-4-yl)-1H-pyrazol-4-yl)pyrazine-2-carboxylate], for which, in assay [1], the “Necroptosis inhibition assay (Rescue %) 1 μM” value was 61.24% and the “Necroptosis inhibition assay (Rescue %) 10 μM” value was found to be 38.71%. In addition, in assay [2], the “Degradation assay (Degradation %) 1 μM” value worked out at 70% and the “Degradation assay (Degradation %) 10 μM” value is listed as 53.96%. Also, the pKd in assay [3] was 8.38.

Take `Nc1ncc(-c2cnn([C@H]3CCN(CC4CCN(C(=O)CNc5ccc6c(c5)C(=O)N(C5CCC(=O)NC5=O)C6=O)CC4)C3)c2)nc1C(=O)OC(C(=O)Nc1ccc(F)cc1)c1ccccc1` (stereo partly drawn) [TDH-282, 2-((4-fluorophenyl)amino)-2-oxo-1-phenylethyl 3-amino-6-(1-((3S)-1-((1-((2-(2,6-dioxopiperidin-3-yl)-1,3-dioxoisoindolin-5-yl)glycyl)piperidin-4-yl)methyl)pyrrolidin-3-yl)-1H-pyrazol-4-yl)pyrazine-2-carboxylate]: in assay [1], the “Necroptosis inhibition assay (Rescue %) 1 μM” value is given as 77.92% and the “Necroptosis inhibition assay (Rescue %) 10 μM” value was 67.84%. For the same molecule, in assay [2], the “Degradation assay (Degradation %) 1 μM” value is given as 60.51% and the “Degradation assay (Degradation %) 10 μM” value is reported as 58.02%. Besides, in assay [3], the pKd is 8.25.

On to `Nc1ncc(-c2cnn(C3CCN(CCC4CCN(C(=O)COc5ccc6c(c5)C(=O)N(C5CCC(=O)NC5=O)C6=O)CC4)CC3)c2)cc1C(=O)OC(C(=O)Nc1ccc(F)cc1)c1ccccc1` (centres unmarked) [TDH-300, 2-((4-fluorophenyl)amino)-2-oxo-1-phenylethyl 2-amino-5-(1-(1-(2-(1-(2-((2-(2,6-dioxopiperidin-3-yl)-1,3-dioxoisoindolin-5-yl)oxy)acetyl)piperidin-4-yl)ethyl)piperidin-4-yl)-1H-pyrazol-4-yl)nicotinate], for which, in assay [1], the “Necroptosis inhibition assay (Rescue %) 1 μM” value is recorded as 55.98% and the “Necroptosis inhibition assay (Rescue %) 10 μM” value came out at 38.09%. In addition, in assay [2], the “Degradation assay (Degradation %) 1 μM” value is 54.31% and the “Degradation assay (Degradation %) 10 μM” value was 69.42%. In assay [3], this molecule had a pKd of 8.05.

The record behind these values is patent publication US20240252488A1 (KOREA RESEARCH INSTITUTE OF CHEMICAL TECHNOLOGY, priority 2020, published 2024).
